Experimental data reported in the supplement of paper PMC8024199.
± gives the standard deviation of the averaged measurements.

Key:
Experiment in all cases: drug sensitivity score (DSS) (DSS score); higher = more sensitive (stronger growth inhibition); extreme values may be limits of the assay
[1] = system: Ba/F3 P210-BCR-ABL1 RUNX1-/- (mouse)
Outline: (§1)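 Mouse Ba/F3 cells carrying P210-BCR-ABL1, CRISPR/Cas9-edited at runx1 exon 4 or edited-control clones, were screened against a 528-compound library on pre-printed 384-well plates. Each compound ran at five concentrations spanning a 10,000-fold range, with 10,000 cells per well in RPMI with 10% FBS for 72 h at 37 °C and 5% CO2. CellTiter-Glo luminescence was scaled between vehicle and positive-control wells. A drug sensitivity score summarised each dose-response, averaged over two replicates.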

[2] = system: Ba/F3 P210-BCR-ABL1 RUNX1-/mut (mouse)
Outline: as §1

[3] = system: Ba/F3 P210-BCR-ABL1 RUNX1wt/wt control (mouse)
Outline: as §1

Compound	drug sensitivity score [1]	drug sensitivity score [2]	drug sensitivity score [3]
Cn1nccc1Nc1nccc(-c2ccn([C@H](CO)c3ccc(Cl)c(F)c3)c(=O)c2)n1 [Ravoxertinib]	2.75 ± 2.6	1.3 ± 1.8	0.05 ± 0.071
O=C1NC(=O)[C@@H](c2cn3c4c(cccc24)CCC3)[C@@H]1c1c[nH]c2ccccc12 [Tivantinib]	5.6 ± 0.57	5.45 ± 0.071	3.25 ± 0.071
CC[C@]1(O)C[C@H]2CN(CCc3c([nH]c4ccccc34)[C@@](C(=O)OC)(c3cc4c(cc3OC)N(C=O)[C@H]3[C@@](O)(C(=O)OC)[C@H](OC(C)=O)[C@]5(CC)C=CCN6CC[C@]43[C@@H]65)C2)C1 [Vincristine]	23.9 ± 4.2	23.1 ± 2.5	13.9 ± 2.3
COc1cccc2c1C(=O)c1c(O)c3c(c(O)c1C2=O)C[C@@](O)(/C(CO)=N/NC(=O)CCCCCN1C(=O)C=CC1=O)C[C@@H]3O[C@H]1C[C@H](N)[C@H](O)[C@H](C)O1 [Aldoxorubicin]	20.3 ± 0.71	18.1 ± 0.35	11.2 ± 0.35
COc1cc2nccc(Oc3ccc(NC(=O)C4(C(=O)Nc5ccc(F)cc5)CC4)cc3)c2cc1OC [Cabozantinib]	4.8 ± 0.85	1.8 ± 1.6	0
O=C(NOC[C@H](O)CO)c1ccc(F)c(F)c1Nc1ccc(I)cc1F	7.95 ± 0.92	3.85 ± 1.1	0.2 ± 0.28
CCN1C(=O)CNc2ncc(-c3ccc(-c4nc[nH]n4)nc3C)nc21 [CC-115]	12.6 ± 2.9	12.8 ± 1.9	7.65 ± 0.21
Nc1nc(OCc2cc(Br)cs2)c2[nH]cnc2n1 [Lomeguatrib]	0	0.05 ± 0.071	0
COc1cc2ncnc(Nc3ccc(F)c(Cl)c3)c2cc1NC(=O)/C=C/CN1CCCCC1 [Dacomitinib]	1.05 ± 1.5	1.8 ± 2.3	0.25 ± 0.35
NC(=O)c1cccc2cn(-c3ccc([C@@H]4CCCNC4)cc3)nc12 [Niraparib]	7.8 ± 0.99	8.15 ± 3.3	2.7 ± 0.71
COC(=O)N[C@@H](C)CNc1nccc(-c2cn(C(C)C)nc2-c2cc(Cl)cc(NS(C)(=O)=O)c2F)n1 [Encorafenib]	1.35 ± 0.071	2.15 ± 0.64	0.05 ± 0.071
CC1(C)CCC(CN2CCN(c3ccc(C(=O)NS(=O)(=O)c4ccc(NCC5CCOCC5)c([N+](=O)[O-])c4)c(Oc4cnc5[nH]ccc5c4)c3)CC2)=C(c2ccc(Cl)cc2)C1 [Venetoclax]	0	1.05 ± 1.5	1.4 ± 1.4
O=C(Nc1cc(Cl)cc2c1[nH]c1cnccc12)c1cccnc1 [PS-1145]	0.4 ± 0.57	0.7 ± 0.99	0
CCNC(=O)c1noc(-c2cc(C(C)C)c(O)cc2O)c1-c1ccc(CN2CCOCC2)cc1 [Luminespib]	29.4 ± 1.7	28.7 ± 3.2	18.4 ± 0.57
CCCCc1nc2cc(/C=C/C(=O)NO)ccc2n1CCN(CC)CC [Pracinostat]	20.7 ± 0.57	19.4 ± 0.35	17.4 ± 0.49
COc1cc2c(NC3CCN(C(C)C)CC3)nc(C3CCCCC3)nc2cc1OCCCN1CCCC1 [UNC0638]	9.2 ± 0.57	7.75 ± 2	1.45 ± 0.64
CCN(CC)CCCC(C)Nc1c2ccc(Cl)cc2nc2ccc(OC)cc12 (stereo not drawn) [Mepacrine]	18.6 ± 2.2	19.7 ± 1.4	5.4
O=C(Nc1cc(Oc2cc(F)c(NC(=O)C3(C(=O)Nc4ccc(F)cc4)CC3)cc2F)ccn1)C1CC1 [Altiratinib]	10.8	6.8 ± 0.85	5.45 ± 0.21
CN(CC(=O)N(Cc1ccc(C2CCCCC2)cc1)c1ccc(C(=O)O)cc1)S(=O)(=O)c1c(F)c(F)c(F)c(F)c1F [SH-4-54]	8.95 ± 1.1	8.35 ± 5.2	5.1 ± 0.14
CCn1c(C(=O)N(C2CC2)C2CC2)cc2c3c(ncn3C)c(Nc3cc(C)n(C)n3)nc21	0.35 ± 0.49	0	0
Cc1ccc(C(=O)Nc2cccc(C(F)(F)F)c2)cc1Nc1nc(-c2cccnc2)nc2c1cnn2C [NVP-BHG712]	7.45 ± 0.35	5.15 ± 0.071	5.4 ± 0.42
CC(C)Oc1ccc(-c2nn([C@@H](C)c3oc4ccc(F)cc4c(=O)c3-c3cccc(F)c3)c3ncnc(N)c23)cc1F [TGR-1202]	3.4 ± 0.99	1.2 ± 1.4	0
O=C(Nc1nc2cccc(-c3ccc(CN4CCS(=O)(=O)CC4)cc3)n2n1)C1CC1 [Filgotinib]	1.5 ± 1.7	1.8 ± 2.5	0

Compound	drug sensitivity score [1]	drug sensitivity score [2]	drug sensitivity score [3]
COc1ccc(Cn2ccc3ccc(C(=O)NO)cc32)cc1	3.15 ± 1.6	4.25 ± 0.78	0
CCOc1cc2ncc(C#N)c(Nc3ccc(OCc4ccccn4)c(Cl)c3)c2cc1NC(=O)/C=C/CN(C)C [Neratinib]	2.35 ± 1.5	1.5 ± 2.1	0
CCN(c1cc(-c2ccc(CN3CCOCC3)cc2)cc(C(=O)NCc2c(C)cc(C)[nH]c2=O)c1C)C1CCOCC1 [Tazemetostat]	0.45 ± 0.64	0.25 ± 0.35	0
CC(C)(C)Cn1c(N)nc2ccc(-c3[nH]c(C(C)(C)C)nc3-c3ccc(F)cc3)nc21 [Ralimetinib]	9.6 ± 3.2	8 ± 4.2	0.7 ± 0.99
Cc1cc2c(C(=O)NC[C@H](C)c3ccccc3)c(O)c(O)cc2c(O)c1-c1c(C)cc2c(C(=O)NC[C@H](C)c3ccccc3)c(O)c(O)cc2c1O [Sabutoclax]	21.8 ± 6.7	23.5 ± 7.5	19.1 ± 0.49
CNC(=O)c1ccc(-c2cnc3ncc(Cc4ccc5ncccc5c4)n3n2)cc1F [Capmatinib]	0.2 ± 0.28	0	0.25 ± 0.35
CNC(=O)c1ccccc1Nc1nc(Nc2ccc3c(c2OC)CCC[C@H](N2CCN(CCO)CC2)C3)ncc1Cl	8.75 ± 0.21	8.65 ± 0.21	8 ± 0.14
C=CC(=O)Nc1cccc(Oc2nc(Nc3ccc(N4CCN(C)CC4)cc3)nc3ccsc23)c1 [Olmutinib]	0.65 ± 0.92	0.45 ± 0.64	0
Oc1ccc2c(c1)CC[C@H](c1ccccc1)[C@@H]2c1ccc(OCCN2CCCC2)cc1 [Lasofoxifene]	0.15 ± 0.21	0.65 ± 0.92	0
O=C(O)c1ccc(-c2c[nH]c3ncc(-c4ccccc4)cc23)cc1C1CCCC1	2.8 ± 0.57	2.5 ± 0.28	0.85 ± 0.35
CCn1c(-c2nonc2N)nc2cnc(Oc3cccc(NC(=O)c4ccc(OCCN5CCOCC5)cc4)c3)cc21	5.55 ± 1.1	4.25 ± 2.3	1.45 ± 0.071
CNc1nc(Nc2cn(C(C)(C)C#N)nc2C)ncc1C(F)(F)F [GNE-0877]	0	0	0
COc1ccc(-c2ccc3ncc4c(c3c2)n(-c2ccc(N3CCNCC3)c(C(F)(F)F)c2)c(=O)n4C)cn1 [NVP-BGT226]	22.4 ± 2.3	23.1 ± 1.4	14.5
CC(=O)N(O)CCCCCNC(=O)CCC(=O)N(O)CCCCCNC(=O)CCC(=O)N(O)CCCCCN [Deferoxamine]	6.9 ± 0.71	6.6 ± 1.4	0.9 ± 0.99
CN(C)C(=O)c1cc2cnc(Nc3ccc(N4CCNCC4)cn3)nc2n1C1CCCC1 [Ribociclib]	4.6 ± 2.3	1.85 ± 2.5	0
CCNCCS(=O)(=O)NC[C@@]1(c2ccccc2)SC(NC(=O)C(C)(C)C)=NN1C(=O)C(C)(C)C [Litronesib]	24.2 ± 1.6	21.5 ± 2.4	10.9 ± 0.28
Nc1ncnc2c1nc(N)n2[C@@H]1O[C@H](CO)[C@@H](O)[C@H]1O [8-amino-adenosine]	19.7 ± 0.42	15.8 ± 2.4	9.4 ± 0.85
COC[C@H](NC(=O)c1cnc(C)s1)C(=O)N[C@@H](COC)C(=O)N[C@@H](Cc1ccccc1)C(=O)[C@@]1(C)CO1 [Oprozomib]	22.2 ± 1.3	20.5 ± 1.6	19.2 ± 0.35
CCN(CC)CCN(Cc1ccc(-c2ccc(C(F)(F)F)cc2)cc1)C(=O)Cn1c(SCc2ccc(F)cc2)nc(=O)c2c1CCC2 [Darapladib]	1.9 ± 0.14	2.65 ± 3.2	0
Cn1c(Nc2ccc(C(F)(F)F)cc2)nc2cc(Oc3ccnc(-c4ncc(C(F)(F)F)[nH]4)c3)ccc21 [NVP-RAF265]	2.5 ± 1.8	0	0
O=C(NCc1ccncc1)C12CC3CC(C1)CC(c1ccc(Cl)cc1)(C3)C2	4.7 ± 0.57	3.3 ± 1.8	2.8 ± 0.85
COCCOc1cnc2ccn([C@H](C)c3nnc4c(F)cc(-c5cnn(C)c5)cn34)c(=O)c2c1 [AMG-337]	0	0	0
CCN(CC)CCOc1ccc(C(=C(Cl)c2ccccc2)c2ccccc2)cc1 [Clomifene]	6.5 ± 0.28	8 ± 1.3	6.35 ± 0.49
